In PMC6704710, “Preclinical evaluation of 3D185, a novel potent inhibitor of FGFR1/2/3 and CSF-1R, in FGFR-dependent and macrophage-dominant cancer models” (Journal of Experimental & Clinical Cancer Research : CR, 2019):

Experiments:
Fyn(h) = biological target: T1, Fyn(h) (Homo sapiens, UniProt P06241); experiment: Eurofins kinase panel; type: biochemical; conditions: read-out: Inhibition rate (%)
T1 construct: purchased Eurofins (KinaseProfiler)

MKK6(h) = biological target: T2, MKK6(h) (Homo sapiens, UniProt P52564); experiment: Eurofins kinase panel; type: biochemical; conditions: read-out: Inhibition rate (%)
T2 construct: purchased Eurofins (KinaseProfiler)
T2 sequence (P52564 1-334): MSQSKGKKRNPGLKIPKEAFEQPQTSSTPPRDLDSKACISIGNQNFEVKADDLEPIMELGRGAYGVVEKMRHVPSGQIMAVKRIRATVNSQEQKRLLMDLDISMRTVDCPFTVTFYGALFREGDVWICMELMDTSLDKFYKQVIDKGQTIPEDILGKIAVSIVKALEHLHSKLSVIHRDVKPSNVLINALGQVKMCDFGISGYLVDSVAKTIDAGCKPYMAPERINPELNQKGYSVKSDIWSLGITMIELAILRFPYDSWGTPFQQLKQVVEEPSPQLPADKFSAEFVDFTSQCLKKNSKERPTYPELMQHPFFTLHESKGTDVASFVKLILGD

MRCKβ(h) = biological target: T3, MRCKβ(h) (Homo sapiens, UniProt Q9Y5S2); experiment: Eurofins kinase panel; type: biochemical; conditions: read-out: Inhibition rate (%)
T3 construct: purchased Eurofins (KinaseProfiler)

PAK3(h) = biological target: T4, PAK3(h) (Homo sapiens, UniProt O75914); experiment: Eurofins kinase panel; type: biochemical; conditions: read-out: Inhibition rate (%)
T4 construct: purchased Eurofins (KinaseProfiler)
T4 sequence (O75914 whole entry): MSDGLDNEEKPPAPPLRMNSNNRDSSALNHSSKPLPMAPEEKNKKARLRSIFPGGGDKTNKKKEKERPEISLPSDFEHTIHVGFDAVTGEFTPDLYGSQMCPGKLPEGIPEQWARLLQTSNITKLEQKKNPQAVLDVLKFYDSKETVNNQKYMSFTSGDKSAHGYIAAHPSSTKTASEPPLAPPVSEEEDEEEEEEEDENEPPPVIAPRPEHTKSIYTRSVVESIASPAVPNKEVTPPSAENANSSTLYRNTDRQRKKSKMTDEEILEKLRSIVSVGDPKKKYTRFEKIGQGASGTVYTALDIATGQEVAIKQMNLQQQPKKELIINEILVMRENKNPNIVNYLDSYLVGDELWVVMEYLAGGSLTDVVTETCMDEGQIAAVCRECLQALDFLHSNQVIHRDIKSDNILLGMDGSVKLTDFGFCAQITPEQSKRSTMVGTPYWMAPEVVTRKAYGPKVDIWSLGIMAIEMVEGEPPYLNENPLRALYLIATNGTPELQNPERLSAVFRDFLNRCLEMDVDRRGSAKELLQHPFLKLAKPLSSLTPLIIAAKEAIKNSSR

[1] = biological target: T5, PI3 Kinase (p110α(H1047R)/p85α)(h) (Homo sapiens, UniProt P42336, H1047R); experiment: Eurofins kinase panel; type: biochemical; conditions: read-out: Inhibition rate (%)
T5 construct: purchased Eurofins (KinaseProfiler)
T5 sequence (P42336 whole entry H1047R): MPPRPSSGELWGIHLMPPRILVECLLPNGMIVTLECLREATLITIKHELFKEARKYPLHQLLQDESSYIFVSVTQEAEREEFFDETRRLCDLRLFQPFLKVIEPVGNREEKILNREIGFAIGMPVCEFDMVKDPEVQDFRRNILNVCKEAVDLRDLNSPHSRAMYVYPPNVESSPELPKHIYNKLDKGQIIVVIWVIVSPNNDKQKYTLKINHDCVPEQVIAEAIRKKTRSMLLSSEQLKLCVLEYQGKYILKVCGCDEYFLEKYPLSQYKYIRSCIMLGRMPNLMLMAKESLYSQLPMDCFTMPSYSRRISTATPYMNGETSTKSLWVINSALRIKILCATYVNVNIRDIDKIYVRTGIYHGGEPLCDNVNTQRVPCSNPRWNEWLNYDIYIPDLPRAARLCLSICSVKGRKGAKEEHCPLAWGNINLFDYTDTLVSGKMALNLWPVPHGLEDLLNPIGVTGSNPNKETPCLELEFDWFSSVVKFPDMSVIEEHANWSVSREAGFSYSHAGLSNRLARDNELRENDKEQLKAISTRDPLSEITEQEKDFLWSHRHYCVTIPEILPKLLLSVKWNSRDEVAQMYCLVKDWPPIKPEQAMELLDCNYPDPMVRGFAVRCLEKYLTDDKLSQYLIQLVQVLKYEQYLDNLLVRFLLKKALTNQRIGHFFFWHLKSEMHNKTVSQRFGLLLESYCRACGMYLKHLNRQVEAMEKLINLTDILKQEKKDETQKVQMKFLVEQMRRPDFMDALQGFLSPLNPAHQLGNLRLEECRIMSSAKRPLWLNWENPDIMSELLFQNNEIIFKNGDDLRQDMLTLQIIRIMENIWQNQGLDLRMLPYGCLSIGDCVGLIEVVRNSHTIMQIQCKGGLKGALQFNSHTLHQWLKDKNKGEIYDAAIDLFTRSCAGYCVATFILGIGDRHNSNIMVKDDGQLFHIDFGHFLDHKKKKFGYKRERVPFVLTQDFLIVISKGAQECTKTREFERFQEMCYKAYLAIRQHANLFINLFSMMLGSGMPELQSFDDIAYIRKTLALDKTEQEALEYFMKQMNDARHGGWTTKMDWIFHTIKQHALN
T5 sequence (P27986 whole entry partner): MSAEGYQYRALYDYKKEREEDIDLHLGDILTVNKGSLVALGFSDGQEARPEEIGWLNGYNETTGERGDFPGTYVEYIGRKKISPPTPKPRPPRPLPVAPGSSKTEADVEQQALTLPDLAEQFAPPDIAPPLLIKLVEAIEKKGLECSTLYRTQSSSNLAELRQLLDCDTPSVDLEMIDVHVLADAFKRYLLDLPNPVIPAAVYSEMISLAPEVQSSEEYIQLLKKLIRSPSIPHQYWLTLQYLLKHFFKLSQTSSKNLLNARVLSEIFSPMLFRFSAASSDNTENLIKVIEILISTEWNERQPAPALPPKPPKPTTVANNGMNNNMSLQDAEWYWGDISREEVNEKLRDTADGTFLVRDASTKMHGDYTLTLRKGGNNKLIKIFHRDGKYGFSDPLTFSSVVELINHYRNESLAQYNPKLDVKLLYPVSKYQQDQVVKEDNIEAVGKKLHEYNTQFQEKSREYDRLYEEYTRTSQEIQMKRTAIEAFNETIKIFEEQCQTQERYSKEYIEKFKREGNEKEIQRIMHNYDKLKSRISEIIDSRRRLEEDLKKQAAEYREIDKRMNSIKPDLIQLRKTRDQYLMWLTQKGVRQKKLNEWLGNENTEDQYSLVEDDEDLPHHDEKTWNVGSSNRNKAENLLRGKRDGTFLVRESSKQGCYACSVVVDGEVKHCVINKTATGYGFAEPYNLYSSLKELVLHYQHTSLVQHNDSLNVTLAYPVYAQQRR

TrkB(h) = biological target: T6, TrkB(h) (Homo sapiens, UniProt Q16620); experiment: Eurofins kinase panel; type: biochemical; conditions: read-out: Inhibition rate (%)
T6 construct: purchased Eurofins (KinaseProfiler)

c-RAF(h) = biological target: T7, c-RAF(h) (Homo sapiens, UniProt P04049); experiment: Eurofins kinase panel; type: biochemical; conditions: read-out: Inhibition rate (%)
T7 construct: purchased Eurofins (KinaseProfiler)
T7 sequence (P04049 whole entry): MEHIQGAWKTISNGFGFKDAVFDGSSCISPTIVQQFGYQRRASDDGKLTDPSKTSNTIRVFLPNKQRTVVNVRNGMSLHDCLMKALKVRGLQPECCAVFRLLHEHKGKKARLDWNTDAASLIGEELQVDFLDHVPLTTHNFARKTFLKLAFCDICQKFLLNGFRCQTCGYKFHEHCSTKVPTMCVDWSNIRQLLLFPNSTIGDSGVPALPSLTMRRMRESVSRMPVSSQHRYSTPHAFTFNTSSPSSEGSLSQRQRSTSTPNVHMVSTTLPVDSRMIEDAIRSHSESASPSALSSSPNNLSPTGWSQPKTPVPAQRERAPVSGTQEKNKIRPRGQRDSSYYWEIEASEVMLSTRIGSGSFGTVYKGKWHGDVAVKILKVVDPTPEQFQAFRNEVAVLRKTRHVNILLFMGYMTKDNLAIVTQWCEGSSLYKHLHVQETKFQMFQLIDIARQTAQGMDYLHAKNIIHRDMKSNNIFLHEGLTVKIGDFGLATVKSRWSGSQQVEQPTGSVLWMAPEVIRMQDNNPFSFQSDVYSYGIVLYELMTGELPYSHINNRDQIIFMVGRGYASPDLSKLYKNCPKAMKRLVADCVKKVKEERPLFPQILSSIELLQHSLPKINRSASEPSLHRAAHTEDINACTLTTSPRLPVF

CDKL1(h) = biological target: T8, CDKL1(h) (Homo sapiens, UniProt Q00532); experiment: Eurofins kinase panel; type: biochemical; conditions: read-out: Inhibition rate (%)
T8 construct: purchased Eurofins (KinaseProfiler)
T8 sequence (Q00532 whole entry): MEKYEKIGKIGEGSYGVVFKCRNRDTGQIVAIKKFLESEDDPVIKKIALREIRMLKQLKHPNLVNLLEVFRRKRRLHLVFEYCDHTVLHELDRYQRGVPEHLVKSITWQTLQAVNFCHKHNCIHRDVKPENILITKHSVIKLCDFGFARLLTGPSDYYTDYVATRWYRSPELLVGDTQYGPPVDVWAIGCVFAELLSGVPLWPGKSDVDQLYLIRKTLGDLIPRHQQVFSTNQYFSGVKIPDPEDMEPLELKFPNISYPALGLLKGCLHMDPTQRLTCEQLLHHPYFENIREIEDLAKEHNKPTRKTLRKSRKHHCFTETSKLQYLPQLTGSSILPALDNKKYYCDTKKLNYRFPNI

cKit(V654A)(h) = biological target: T9, cKit(V654A)(h) (Homo sapiens, UniProt P10721, V654A); experiment: Eurofins kinase panel; type: biochemical; conditions: read-out: Inhibition rate (%)
T9 construct: purchased Eurofins (KinaseProfiler)

Lyn(h) = biological target: T10, Lyn(h) (Homo sapiens, UniProt P07948); experiment: Eurofins kinase panel; type: biochemical; conditions: read-out: Inhibition rate (%)
T10 construct: purchased Eurofins (KinaseProfiler)
T10 sequence (P07948 whole entry): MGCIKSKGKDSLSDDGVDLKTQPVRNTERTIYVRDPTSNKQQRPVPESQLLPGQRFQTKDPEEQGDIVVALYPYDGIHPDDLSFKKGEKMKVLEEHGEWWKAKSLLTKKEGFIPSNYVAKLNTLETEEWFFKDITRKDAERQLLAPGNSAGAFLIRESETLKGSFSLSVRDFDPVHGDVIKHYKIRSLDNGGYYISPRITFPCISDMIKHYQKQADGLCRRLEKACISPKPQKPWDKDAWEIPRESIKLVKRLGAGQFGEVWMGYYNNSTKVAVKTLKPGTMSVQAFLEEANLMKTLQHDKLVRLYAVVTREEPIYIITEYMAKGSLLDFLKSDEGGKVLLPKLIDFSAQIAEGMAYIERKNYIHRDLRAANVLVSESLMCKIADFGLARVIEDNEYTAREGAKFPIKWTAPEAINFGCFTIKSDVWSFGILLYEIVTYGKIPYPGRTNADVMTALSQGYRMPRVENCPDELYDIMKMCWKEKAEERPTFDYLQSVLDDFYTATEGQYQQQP

PAK1(h) = biological target: T11, PAK1(h) (Homo sapiens, UniProt Q13153); experiment: Eurofins kinase panel; type: biochemical; conditions: read-out: Inhibition rate (%)
T11 construct: purchased Eurofins (KinaseProfiler)

RIPK2(h) = biological target: T12, RIPK2(h) (Homo sapiens, UniProt O43353); experiment: Eurofins kinase panel; type: biochemical; conditions: read-out: Inhibition rate (%)
T12 construct: purchased Eurofins (KinaseProfiler)
T12 sequence (O43353 whole entry): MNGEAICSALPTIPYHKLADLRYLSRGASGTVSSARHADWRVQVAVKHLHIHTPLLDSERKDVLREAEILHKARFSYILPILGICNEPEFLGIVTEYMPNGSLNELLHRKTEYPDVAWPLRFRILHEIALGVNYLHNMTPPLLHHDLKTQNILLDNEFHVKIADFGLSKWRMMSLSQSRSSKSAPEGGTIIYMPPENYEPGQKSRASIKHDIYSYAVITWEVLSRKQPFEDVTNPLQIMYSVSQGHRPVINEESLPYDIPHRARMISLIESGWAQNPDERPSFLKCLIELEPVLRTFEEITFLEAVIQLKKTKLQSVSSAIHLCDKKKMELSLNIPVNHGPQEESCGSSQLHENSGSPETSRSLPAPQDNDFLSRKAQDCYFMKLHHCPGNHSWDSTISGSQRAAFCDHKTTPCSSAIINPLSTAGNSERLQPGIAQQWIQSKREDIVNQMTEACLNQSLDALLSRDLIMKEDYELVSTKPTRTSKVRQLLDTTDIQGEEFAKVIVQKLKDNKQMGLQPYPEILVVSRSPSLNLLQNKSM

BMDM (CSF-1) = experiment: Macrophage survival (CCK-8); type: cell-based, murine; conditions: Mus musculus, BMDM, 168 h; 7 days, mean ± SD
Experimental: Murine bone marrow and human monocytes were stimulated with CSF-1 for 7 days together with the indicated inhibitor, and cell viability was evaluated by the CCK-8 assay. The IC50 values are shown as the mean ± SD (nM) from two independent tests. B-E, To test the impact of 3D185 on the polarization of CSF-1-induced macrophages, murine bone marrow cells and human monocytes were induced to mature into macrophages with CSF-1 for 7 days and then stimulated with CSF-1, IL-4 and IL-13 for an additional 48 h. The expression of the markers MHC-II (b), CD86 (c), and CD206 (d) on induced murine macrophages and CD206 expression on induced human macrophages (e) were determined by flow cytometry, and the mean fluorescence intensity (MFI) was analyzed with FlowJo. Representative data from two independent experiments. f Murine bone marrow cells (left panel) and human monocytes (right panel) were induced to mature into macrophages with CSF-1 for 7 days and then stimulated with CSF-1, IL-4 and IL-13 and treated with vehicle or the indicated inhibitor for an additional 48 h. Then, all cells were collected to count viable cells by staining with trypan blue
Murine bone marrow-derived macrophages (BMDMs) and PBMCs were used for cell viability studies. BMDMs were harvested by flushing the tibias and femurs of 6- to 8-week-old C57BL/6 mice and depleting red blood cells (RBCs) by RBC lysis (Biogems). For BMDM survival, the cells were cultured for 7 days in RPMI 1640 containing 10% fetal bovine serum (FBS), 100 U/mL penicillin, 100 μg/mL streptomycin and 100 ng/mL mouse CSF-1 (or CSF-2) with or without the tested compounds. PBMCs were obtained from HemaCare and cultured for 7 days in RPMI 1640 containing 10% fetal bovine serum (FBS), 100 U/mL penicillin, 100 μg/mL streptomycin and 100 ng/mL human CSF-1 (or CSF-2) with or without the tested compounds. Cell viability was measured using the CCK-8 assay. For IL-4/IL-13-induced macrophage survival analysis, viable cells were counted by trypan blue exclusion.

T1 sequence (P06241 whole entry): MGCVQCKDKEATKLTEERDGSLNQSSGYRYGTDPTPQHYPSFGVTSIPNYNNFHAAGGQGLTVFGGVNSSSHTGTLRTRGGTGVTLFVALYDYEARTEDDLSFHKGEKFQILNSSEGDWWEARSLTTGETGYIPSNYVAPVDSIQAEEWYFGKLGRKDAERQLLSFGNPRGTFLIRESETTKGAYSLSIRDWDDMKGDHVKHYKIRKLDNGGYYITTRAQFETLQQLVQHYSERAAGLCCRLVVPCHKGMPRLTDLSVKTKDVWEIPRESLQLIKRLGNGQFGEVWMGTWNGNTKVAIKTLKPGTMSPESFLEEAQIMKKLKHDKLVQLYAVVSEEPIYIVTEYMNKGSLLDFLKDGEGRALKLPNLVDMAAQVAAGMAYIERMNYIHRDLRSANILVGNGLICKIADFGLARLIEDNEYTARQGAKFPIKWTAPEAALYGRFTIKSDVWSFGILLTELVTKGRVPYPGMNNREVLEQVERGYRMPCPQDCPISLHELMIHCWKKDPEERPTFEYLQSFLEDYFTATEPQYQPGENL

COc1cc(OC)c(Cl)c(-c2ccc3c(NC(=O)c4ccc(N5CCNC(C)(C)C5)cc4)n[nH]c3n2)c1Cl [3D185]
inhibition at 0.01 µM (Fyn(h); 10 nM): 8% | inhibition at 0.1 µM (Fyn(h); 100 nM): 27% | inhibition at 1 µM (Fyn(h); 1000 nM): 80% | inhibition at 0.01 µM (MKK6(h); 10 nM): 11% | inhibition at 0.1 µM (MKK6(h); 100 nM): 0% | inhibition at 1 µM (MKK6(h); 1000 nM): 2% | inhibition at 0.01 µM (MRCKβ(h); 10 nM): 18% | inhibition at 0.1 µM (MRCKβ(h); 100 nM): 8% | inhibition at 1 µM (MRCKβ(h); 1000 nM): 21% | inhibition at 0.01 µM (PAK3(h); 10 nM): -1% | inhibition at 0.1 µM (PAK3(h); 100 nM): -3% | inhibition at 1 µM (PAK3(h); 1000 nM): 7% | inhibition at 0.01 µM ([1]; 10 nM): 1% | inhibition at 0.1 µM ([1]; 100 nM): 3% | inhibition at 1 µM ([1]; 1000 nM): -5% | inhibition at 0.01 µM (TrkB(h); 10 nM): 31% | inhibition at 0.1 µM (TrkB(h); 100 nM): 87% | inhibition at 1 µM (TrkB(h); 1000 nM): 97% | inhibition at 0.01 µM (c-RAF(h); 10 nM): 13% | inhibition at 0.1 µM (c-RAF(h); 100 nM): 14% | inhibition at 1 µM (c-RAF(h); 1000 nM): 5% | inhibition at 0.01 µM (CDKL1(h); 10 nM): 3% | inhibition at 0.1 µM (CDKL1(h); 100 nM): -5% | inhibition at 1 µM (CDKL1(h); 1000 nM): 0% | inhibition at 0.01 µM (cKit(V654A)(h); 10 nM): 4% | inhibition at 0.1 µM (cKit(V654A)(h); 100 nM): 14% | inhibition at 1 µM (cKit(V654A)(h); 1000 nM): 37% | inhibition at 0.01 µM (Lyn(h); 10 nM): 8% | inhibition at 0.1 µM (Lyn(h); 100 nM): 81% | inhibition at 1 µM (Lyn(h); 1000 nM): 98% | inhibition at 0.01 µM (PAK1(h); 10 nM): 5% | inhibition at 0.1 µM (PAK1(h); 100 nM): 6% | inhibition at 1 µM (PAK1(h); 1000 nM): 2% | inhibition at 0.01 µM (RIPK2(h); 10 nM): 2% | inhibition at 0.1 µM (RIPK2(h); 100 nM): 6% | inhibition at 1 µM (RIPK2(h); 1000 nM): 3% | IC50 (BMDM (CSF-1)): 57.8 nM
